The record followed here is patent US10266548B2, “Substituted benzylindazoles for use as Bub1 kinase inhibitors in the treatment of hyperproliferative diseases” (Bayer Intellectual Property GmbH, priority 2011, dated 2019).

catalytic domain of human Bub1 (amino acids 704-1085), sequence (O43683 704-1085): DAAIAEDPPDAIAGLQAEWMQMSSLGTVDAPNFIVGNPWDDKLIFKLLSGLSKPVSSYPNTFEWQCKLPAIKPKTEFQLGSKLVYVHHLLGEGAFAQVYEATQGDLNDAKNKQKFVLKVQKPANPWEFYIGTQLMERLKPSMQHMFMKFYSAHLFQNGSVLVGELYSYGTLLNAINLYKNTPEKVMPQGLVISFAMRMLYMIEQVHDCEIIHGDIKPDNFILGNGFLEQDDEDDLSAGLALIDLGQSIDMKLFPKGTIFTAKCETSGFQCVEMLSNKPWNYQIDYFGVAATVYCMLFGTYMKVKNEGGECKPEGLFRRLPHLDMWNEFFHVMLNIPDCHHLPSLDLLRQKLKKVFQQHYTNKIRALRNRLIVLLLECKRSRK

This assay addresses catalytic domain of human Bub1 (amino acids 704-1085) (Homo sapiens (Human), UniProt O43683). Briefly: Bub1 kinase assay (TR-FRET). The format is biochemical. The settings on record: 10 μM ATP, 1 μM peptide substrate; read-out: Biological Assay 1: Bub1 kinase assay median IC50. The procedure:
To this end, 100-fold concentrated compound solutions (in DMSO) were previously prepared by serial dilution (1:3.4) of 2 mM stocks in a clear low volume 384-well source microtiter plate (Greiner Bio-One, Frickenhausen, Germany), from which 50 nl of compounds were transferred into a black low volume test microtiter plate from the same supplier. […] The resulting mixture (5 μl final volume) was incubated at 22° C. during 60 min., and the reaction was stopped by the addition of 5 μl of an aqueous EDTA-solution (50 mM EDTA, in 100 mM HEPES pH 7.5 and 0.2% (w/v) bovine serum albumin) which also contained the TR-FRET detection reagents (0.2 μM streptavidin-XL665 [Cisbio Bioassays, Codolet, France] and 1 nM anti-phosho-Serine antibody [Merck Millipore, cat. #35-001] and 0.4 nM LANCE EU-W1024 labeled anti-mouse IgG antibody [Perkin-Elmer, product no. AD0077, alternatively a Terbium-cryptate-labeled anti-mouse IgG antibody from Cisbio Bioassays can be used]). The stopped reaction mixture was further incubated 1 h at 22° C. in order to allow the formation of complexes between peptides and detection reagents. Subsequently, the amount of product was evaluated by measurement of the resonance energy transfer from the Eu-chelate-antlbody complex recognizing the Phosphoserlne residue to the streptavidin-XL665 bound to the biotin moiety of the peptide. […] IC50 values were calculated by fitting the normalized inhibition data to a 4-parameter logistic equation (Minimum, Maximum, IC50, Hill; Y=Max+(Min−Max)/(1+(X/IC50)Hill)) using a Bayer-proprietary analysis software.
In general, IC50 refers to the concentration needed to halve the response being measured. On to `COc1cnc(-c2nn(Cc3cccc(-n4cccc4)c3)c3ccccc23)nc1Nc1ccncc1` [Example 2-1-3, 5-methoxy-N-(pyridin-4-yl)-2-{1-[3-(1H-pyrrol-1-yl)benzyl]-1H-indazol-3-yl}pyrimidin-4-amine], for which the IC50 was 120 nM. To `COc1cnc(-c2nn(Cc3cccc(-c4noc(C)n4)c3)c3ccccc23)nc1Nc1ccncc1` [Example 2-2-3, 5-methoxy-2-{1-[3-(5-methyl-1,2,4-oxadiazol-3-yl)benzyl]-1H-indazol-3-yl}-N-(pyridin-4-yl)pyrimidin-4-amine] belongs 25 nM; to `COc1cnc(-c2nn(Cc3c(F)ccc(OC)c3F)c3ccccc23)nc1N(Cc1c(F)ccc(OC)c1F)c1ccncc1` [Example 2-4-2, N-(2,6-difluoro-3-methoxybenzyl)-2-[1-(2,6-difluoro-3-methoxybenzyl)-1H-indazol-3-yl]-5-methoxy-N-(pyridin-4-yl)pyrimidin-4-amine], 3500 nM; to `CCOc1cc(F)c(CN(c2ccncc2)c2nc(-c3nn(Cc4c(F)cc(OCC)cc4F)c4ccccc34)ncc2OC)c(F)c1` [Example 2-5-2, N-(4-ethoxy-2,6-difluorobenzyl)-2-[1-(4-ethoxy-2,6-difluorobenzyl)-1H-indazol-3-yl]-5-methoxy-N-(pyridin-4-yl)pyrimidin-4-amine], 9300 nM. For the compound `COc1cnc(-c2nn(Cc3c(F)cccc3F)c3ccccc23)nc1N(Cc1c(F)cccc1F)c1ccncc1` [Example 2-7-2, N-(2,6-difluorobenzyl)-2-[1-(2,6-difluorobenzyl)-1H-indazol-3-yl]-5-methoxy-N-(pyridin-4-yl)pyrimidin-4-amine], the concentration for half-maximal inhibition (IC50) came to 210 nM.

For `COc1cnc(-c2nn(Cc3ccc(C)c(F)c3F)c3ccccc23)nc1N(Cc1ccc(C)c(F)c1F)c1ccncc1` [Example 2-8-2, N-(2,3-difluoro-4-methylbenzyl)-2-[1-(2,3-difluoro-4-methylbenzyl)-1H-indazol-3-yl]-5-methoxy-N-(pyridin-4-yl)pyrimidin-4-amine], the IC50 was determined as 290 nM. To `COc1cnc(-c2nn(Cc3c(Cl)cccc3Cl)c3ccccc23)nc1N(Cc1c(Cl)cccc1Cl)c1ccncc1` [Example 2-9-2, N-(2,6-dichlorobenzyl)-2-[1-(2,6-dichlorobenzyl)-1H-indazol-3-yl]-5-methoxy-N-(pyridin-4-yl)pyrimidin-4-amine] belongs 240 nM; to `COc1cnc(-c2nn(Cc3ccc(SC(F)(F)F)cc3)c3ccccc23)nc1Nc1ccncc1` [Example 2-9-3, 5-methoxy-N-(pyridin-4-yl)-2-(1-{4-[(trifluoromethyl)sulfanyl]benzyl}-1H-indazol-3-yl)pyrimidin-4-amine], 20000 nM. As for `COc1cnc(-c2nn(Cc3ccccc3Cl)c3ccccc23)nc1N(Cc1ccccc1Cl)c1ccncc1` [Example 2-10-2, N-(2-chlorobenzyl)-2-[1-(2-chlorobenzyl)-1H-indazol-3-yl]-5-methoxy-N-(pyridin-4-yl)pyrimidin-4-amine], the IC50 came to 1200 nM.

Consider `CCOc1ccc(CN(c2ccncc2)c2nc(-c3nn(Cc4ccc(OCC)c(F)c4F)c4ccccc34)ncc2OC)c(F)c1F` [Example 2-14-2, N-(4-ethoxy-2,3-difluorobenzyl)-2-[1-(4-ethoxy-2,3-difluorobenzyl)-1H-indazol-3-yl]-5-methoxy-N-(pyridin-4-yl)pyrimidin-4-amine], for which the IC50 is 730 nM. On to `COc1cnc(-c2nn(Cc3ccccc3Br)c3ccccc23)nc1N(Cc1ccccc1Br)c1ccncc1` [Example 2-21-2, N-(2-bromobenzyl)-2-[1-(2-bromobenzyl)-1H-indazol-3-yl]-5-methoxy-N-(pyridin-4-yl)pyrimidin-4-amine], for which the IC50 was determined as 20000 nM.

As to `COc1cnc(-c2nn(Cc3ccc(CC(=O)O)cc3F)c3ccccc23)nc1Nc1ccncc1` [Example 2-22-1, [3-fluoro-4-({3-[5-methoxy-4-(pyridin-4-ylamino)pyrimidin-2-yl]-1H-indazol-1-yl}methyl)phenyl]acetic acid], the IC50 was found to be 3200 nM. To `COc1cnc(-c2nn(Cc3c(F)cc(OC(F)F)cc3F)c3ccccc23)nc1N(Cc1c(F)cc(OC(F)F)cc1F)c1ccncc1` [Example 2-39-2, N-[4-(difluoromethoxy)-2,6-difluorobenzyl]-2-{1-[4-(difluoromethoxy)-2,6-difluorobenzyl]-1H-indazol-3-yl}-5-methoxy-N-(pyridin-4-yl)pyrimidin-4-amine] belongs 6900 nM; to `COc1cnc(-c2nn(Cc3c(Cl)ccc([N+](=O)[O-])c3Cl)c3ccccc23)nc1Nc1ccncc1` [Example 2-44-1, 2-[1-(2,6-dichloro-3-nitrobenzyl)-1H-indazol-3-yl]-5-methoxy-N-(pyridin-4-yl)pyrimidin-4-amine], 41 nM. Consider `COc1cnc(-c2nn(Cc3cccc(C#N)c3)c3ccccc23)nc1Nc1ccncc1` [Example 2-45-1, 3-({3-[5-methoxy-4-(pyridin-4-ylamino)pyrimidin-2-yl]-1H-indazol-1-yl}methyl)benzonitrile], for which the IC50 worked out at 110 nM. As for `COc1cc(C(F)(F)F)ccc1Cn1nc(-c2ncc(OC)c(Nc3ccncc3)n2)c2ccccc21` [Example 2-47-1, 5-methoxy-2-{1-[2-methoxy-4-(trifluoromethyl)benzyl]-1H-indazol-3-yl}-N-(pyridin-4-yl)pyrimidin-4-amine], the IC50 stood at 2400 nM. The value for `COc1cnc(-c2nn(Cc3c(F)cccc3OC)c3ccccc23)nc1Nc1ccncc1` [Example 2-49-1, 2-[1-(2-fluoro-6-methoxybenzyl)-1H-indazol-3-yl]-5-methoxy-N-(pyridin-4-yl)pyrimidin-4-amine] was 1500 nM; that for `OCC1(COc2cnc(-c3nn(Cc4ccccc4F)c4ccccc34)nc2N(CC2(CO)COC2)c2ccncc2)COC1` [Example 4-2-2, (3-{[(2-[1-(2-fluorobenzyl)-1H-indazol-3-yl]-5-{[3-(hydroxymethyl)oxetan-3-yl]methoxy}pyrimidin-4-yl)(pyridin-4-yl)amino]methyl}oxetan-3-yl)methanol] was 430 nM; that for `Fc1ccccc1Cn1nc(-c2ncc(OCCc3nnn[nH]3)c(N(CCc3nnn[nH]3)c3ccncc3)n2)c2ccccc21` [Example 4-5-2, 2-[1-(2-fluorobenzyl)-1H-indazol-3-yl]-N-(pyridin-4-yl)-5-[2-(1H-tetrazol-5-yl)ethoxy]-N-[2-(1H-tetrazol-5-yl)ethyl]pyrimidin-4-amine] was 330 nM. To `CCOc1cc(F)c(Cn2nc(-c3ncc(OCC4CN(C(=O)OC(C)(C)C)CCO4)c(Nc4ccncc4)n3)c3ccccc32)c(F)c1` (stereo not drawn) [Example 4-11, tert-butyl 2-[({2-[1-(4-ethoxy-2,6-difluorobenzyl)-1H-indazol-3-yl]-4-(pyridin-4-ylamino)pyrimidin-5-yl}oxy)methyl] morpholine-4-carboxylate] belongs 24 nM; to `CCOc1cc(F)c(Cn2nc(-c3ncc(OC[C@@H]4CCC(=O)N4)c(Nc4ccncc4)n3)c3ccccc32)c(F)c1` [Example 4-18, formic acid - (5S)-5-[({2-[1-(4-ethoxy-2,6-difluorobenzyl)-1H-indazol-3-yl]-4-(pyridin-4-ylamino)pyrimidin-5-yl}oxy)methyl] pyrrolidin-2-one (1:1)], 12 nM.
